Results published in patent US8044022B2, “Hyaluronic acid binding peptides enhance host defense against pathogenic bacteria” (priority 2005, dated 2011).

Key:
[1] = tested on: leukocyte adhesion to HA; settings: cited from earlier work
[2] = tested on: S. aureus strain PS80; experiment: Mouse model of S. aureus surgical wound infection; assay type: in vivo, C57BL6 mice
Procedure: Bacterial strains. S. aureus strain PS80 (serotype 8) was obtained from the American Type Culture collection (#27700) and is a potent inducer of intraabdominal abscess formation. S. aureus COL is a methicillin resistant strain that produces a serotype 5 capsule. Staphylococci were cultivated for 24 h at 37° C. on Columbia agar (Difco Laboratories, Detroit, Mich.) supplemented with 2% NaCl.
Mouse model of S. aureus wound infection. Mice (C57BL6, male, 6-8 wk old) were obtained from Jackson Laboratories (Bar Harbor, Me.). Groups of mice (N=4/group/experiment) were anesthetized with 100 mg/kg ketamine and 10 mg/kg xylazine, their right thighs were shaved, and the surgical area was disinfected with iodine and 70% ethanol. An incision was made in the skin to expose the thigh muscle, and a 1-cm incision was made with a scalpel into the thigh muscle to the depth of the bone. The muscle was then closed with one 4-0 silk suture, and 10 μl of a S. aureus suspension ranging in dose from 10^2 to 10^4 CFU was introduced into the incision under the suture. The skin was closed with four additional Prolene sutures. The mice were euthanized at 3 days post-surgery. The wounded muscle tissue was excised, weighed (˜0.08 g), and homogenized in 1 ml of tryptic soy broth. Serial dilutions of the homogenates were plated in duplicate and results were expressed as CFU/g tissue. Peptides were administered to animals in two ways. For most experiments, HABPs were solubilized in PBS and administered with a pipet into the wound in a 10 μl volume following challenge with bacteria. A 100 μg dose was used for most experiments. For therapeutic studies, peptide was administered via a 1 ml tuberculin syringe fitted with a 25 gauge needle in a 0.25 ml volume injected into the thigh muscle containing the wound distal from the incision site.
Gross pathology and histologic analysis of host response. […] Histological examination of these wounds confirmed these findings. Muscle tissue was harvested from mice at designated intervals post-surgery, fixed in 10% buffered formalin, and mounted in paraffin; 5 to 6-μm sections were cut and stained with hematoxylin and eosin for microscopic examination. […] The cellular infiltrate was primarily comprised of PMNs and fibrin.
Statistical analyses. All animal experiments were performed at least two times and the data pooled. Comparison of S. aureus CFU/g tissue was made by the Welch modification of the unpaired Student t test (InStat, GraphPad Software, San Diego, Calif.).

[3] = tested on: S. aureus PS80; experiment: Modified NCCLS macrodilution broth method, antimicrobial activity; assay type: cell-based, Staphylococcus aureus; settings: 1, 10 and 100 ug/mL; quantitative cultures at 4, 8, 24 h; vs controls without HABPs
Procedure: The antimicrobial activity of HABP35 and HABP53 was determined using a modified National Committee for Clinical Laboratory Standards (NCCLS) macrodilution broth method. S. aureus PS80 was grown overnight on tryptic soy agar plates containing 5% sheep blood. Colonies were suspended in sterile saline and dilutions made to achieve a final concentration of 5×10^5 CFU/ml in each tube containing 5 ml of Mueller-Hinton and BP35 or 53. The HABPs were tested at 1, 10, and 100 ug/mL concentrations. Once inoculated, the tubes were incubated in ambient air at 37° C. and bacterial concentration determined at 4, 8, and 24 hours. Modification of testing parameters included the 10 fold dilution of the HABPs and the determination of bacterial counts at 4, 8 and 24 hours rather than the visual determination of growth or inhibition.

[4] = tested on: contact hypersensitivity; settings: mice; cited from earlier work
[5] = tested on: P. multocida; experiment: Bacterial translocation through polarized keratinocyte cultures (Transwell); assay type: cell-based, Pasteurella multocida; settings: 100 μg/ml; vs PBS or SCRM
Procedure: (§1) Cell cultures: For the preparation of in vitro keratinocyte cultures, human primary OKP7 cells were derived from the oropharynx. Keratinocytes were seeded at 5×10^5 cells per well onto polycarbonate Transwell membrane supports (12 well plates, 3.0 μm pore size; Costar) or tissue culture treated plastic ware and cultured for 5-10 days at 37° C. with 5% humidified CO2 in cSFM medium with daily medium changes. Once confluent, the calcium concentration of the cSFM was increased to 1.2 mM and cells were cultured for 2 more days, before the integrity of the monolayer was assessed by measuring permeability to sodium fluorescein, and in some experiments, by measuring transepithelial electrical resistance.
(§2) Infection procedures: Keratinocyte layer cultures in Transwell inserts were inoculated in the upper chamber with GAS, S. equi, S. uberis, and P. multocida at a multiplicity of infection (MOI) of 1 bacterium per keratinocyte in the presence or absence of HABP01 or SCRM. Infected cultures were incubated at 37° C. with 5% CO2 for the desired time. In translocation experiments, Transwell inserts containing the keratinocytes were moved to new wells containing fresh medium every 2 hours to prevent overgrowth of bacteria that had translocated through the keratinocytes layer to the lower chamber. Bacterial translocation was quantified by culturing medium from the lower chamber at 2-hour intervals. […]

[6] = tested on: GAS; experiment: Opsonophagocytic assay with human neutrophils; assay type: cell-based, Group A Streptococcus; settings: 50 μg/ml, 2 hours incubation with human neutrophils, 10% absorbed human serum
Procedure: Encapsulated GAS are resistant to killing by neutrophils in opsonophagocytic assays in the absence of antibodies that bind the bacterial surface. HABPs binding to the bacterial surface may facilitate neutrophil cytotoxicity. Opsonophagocytic assays were performed wherein GAS were incubated with 50 μg/ml of SCRM, HABP01 or HABP35 and mixed with human neutrophils in medium containing 10% absorbed human serum. Aliquots (25 μl) for quantitative culture were withdrawn immediately after mixing neutrophil with GAS and after 2 hr incubation at 37° C. The log increase or decrease in CFU's was calculated. After 2 hours of incubation, there was about a 1.5 log increase in CFU's for GAS treated with PBS or SCRM.

[7] = tested on: Acapsular GAS; experiment: Fluorometry binding of FITC-conjugated peptide to capsule-deficient GAS; design: species or system Group A Streptococcus
Procedure: (§3) Bacterial strains: GAS strain 950771 is a moderately encapsulated M3 clinical isolate from a child with post-varicella necrotizing fasciitis and sepsis, and an isogenic capsule deficient mutant, 188, derived from 950771. GAS were grown in Todd-Hewitt broth (Difco) to mid-exponential phase OD650 of 0.15 at 37° C. for all experiments. Commercially available trypticase-soy agar medium supplemented with 5% vol/vol sheep blood (BAP)(PML Microbiologicals, British Columbia, Canada) were used for all plate cultures. S. equi s(ATCC 53185) and P. multocida (ATCC 11039) were purchased from ATCC and cultured as recommended. Briefly, S. equi was cultured in Todd-Hewitt broth and S. uberis and P. multocida were cultured in Brain heart infusion (Difco) to OD 650 of 0.15 at 37° C. Quantitative cultures were performed in parallel with each experiment to verify the multiplicity of infection (MOI) of the inoculum.
(§4) Binding of HABP to HA and HA-encapsulated bacteria: To assess whether HABP are able to associate specifically with the GAS capsule, bacteria were cultured to mid-log phase, for maximal HA capsule expression, and incubated with either 10 μg/ml of FITC-conjugated HABP01 or SCRM, with purified HA at 1 mg/ml, as a positive control, or an isogenic mutant strain of GAS deficient in HA capsule, as a negative control. A GAS-specific antibody was used to control for the number of bacteria per well.

[8] = tested on: Wild Type GAS (HA encapsulated); experiment: Fluorometry binding of FITC-conjugated peptide to encapsulated GAS; design: species or system Group A Streptococcus
Procedure: as §3, §4

[9] = tested on: S. equi; experiment: Bacterial translocation through polarized keratinocyte cultures (Transwell); assay type: cell-based, Streptococcus equi; settings: 100 μg/ml; vs PBS or SCRM
Procedure: as §1, §2

[10] = Fluorometry binding of FITC-conjugated peptide to purified HA in well; design: species or system rooster
Procedure: Lyophilized synthetic peptides were resuspended in PBS pH7.4 prior to use in either in vitro or in vivo experiments. Fluorescein conjugation of HABP01 and SCRM was performed using 5,6 carboxyfluorescein, succinimidyl ester (5,6 FAM) (Molecular Probes, Portland, Oreg.) as per manufacturer's instructions and separated on a Sephadex G-25 column (Amersham, Piscataway, N.J.). Purified, high molecular weight rooster comb HA (Sigma-Aldrich, St Louis, Mo.) was used as a positive control for BP binding.
as §4

[11] = tested on: GAS internalization by keratinocytes; experiment: Bacterial internalization by keratinocyte monolayers; assay type: cell-based, Group A Streptococcus / human keratinocytes; settings: 100 μg/ml, 4 hours
Procedure: Effect of HABP on bacterial internalization by keratinocytes. Encapsulated GAS are poorly internalized by keratinocytes. Yet in the presence of HABPs, intracellular encapsulated GAS are observed by microscopy. To quantify this internalization, keratinocyte monolayers were infected with HA-encapsulated bacteria in the presence of 100 μg/ml of either HABP01 or SCRM for 4 hours. Penicillin and gentamicin were added at 3 hours to kill extracellular bacteria and cells were harvested. Bacteria treated with HABP01 were internalized approximately 40-fold more efficiently than SCRM-treated or untreated samples, and at similar levels to those obtained with acapsular GAS. Internalization of acapsular GAS was unaffected by either peptide.

[12] = tested on: Staphylococcus aureus; experiment: Bacterial translocation through polarized keratinocyte cultures (Transwell); assay type: cell-based; settings: 100 μg/ml; vs PBS or SCRM
[13] = tested on: GAS; experiment: as above; assay type: cell-based, Group A Streptococcus; settings: 100 μg/ml, treatment of keratinocytes or bacteria; vs PBS or SCRM
Procedure: as §1
Infection procedures: Keratinocyte layer cultures in Transwell inserts were inoculated in the upper chamber with GAS, S. equi, S. uberis, and P. multocida at a multiplicity of infection (MOI) of 1 bacterium per keratinocyte in the presence or absence of HABP01 or SCRM. Infected cultures were incubated at 37° C. with 5% CO2 for the desired time. In translocation experiments, Transwell inserts containing the keratinocytes were moved to new wells containing fresh medium every 2 hours to prevent overgrowth of bacteria that had translocated through the keratinocytes layer to the lower chamber. Bacterial translocation was quantified by culturing medium from the lower chamber at 2-hour intervals.
Bacterial translocation studies were performed to assess the impact of HABP01 on bacterial paracellular translocation through polarized keratinocyte cultures.
Incubation of GAS in the presence of HABP33, HABP35 and HABP42, also delayed GAS translocation. At two hours after the addition of GAS to the keratinocytes, approximately 530 CFU of GAS were detected in the lower level in cultures treated with PBS or SCRM peptide.

[14] = fluorometry, HABP35 also confocal microscopy, data not shown

Sequence | leukocyte adhesion to HA [1] | bacterial burden at the wound site compared with PBS ([2]; 100 μg into wound at time of challenge with 10^2 CFU, 3 days later) | log reduction in bacterial numbers vs PBS ([2]; challenge with 10^3 CFU, 3 days) [log] | growth of S. aureus [3] | contact hypersensitivity responses [4] | reduction in translocation of P. multocida [5] [%] | log increase in CFU's [6] | binding to unencapsulated GAS (in words) [7, 14] | Relative binding ([7]; substrate in well: Acapsular GAS, 10 μg/ml FITC-conjugated peptide) | binding to encapsulated GAS (in words) [8, 14] | Relative binding ([8]; substrate in well: Wild Type GAS, 10 μg/ml FITC-conjugated peptide) | reduction in translocation of S. equi [9] [%] | binding to purified HA (in words) ([10]; fluorometry) | Relative binding ([10]; substrate in well: HA (1 mg/ml), 10 μg/ml FITC-conjugated peptide) | internalization of HA-encapsulated bacteria by keratinocytes relative to SCRM-treated or untreated samples [11] | reduction in translocation of Staphylococcus aureus [12] [%] | reduction in the translocation of GAS across an intact keratinocyte culture [13]
GAHWQFNALTVRGGGS [HABP52] | inhibit leukocyte adhesion to HA | significant decrease | ~3 | not inhibited | inhibits contact hypersensitivity responses |  |  |  |  |  |  |  |  |  |  |  | 
STMMSRSHKTRSHHV [HABP01] |  |  |  |  |  | 98 | over 1 log | not to unencapsulated GAS | 1940 ± 70 relative fluorescent units | bound specifically | 11840 ± 230 relative fluorescent units | 98 | bound specifically | 9640 ± 360 relative fluorescent units | approximately 40 fold | 73 | 75-85%
